Common to all, as to assay type: cell-based
The subject of experiment [1] is Pseudomonas Aeruginosa (ATCC27853). In words: Microtiter plate growth of Pseudomonas Aeruginosa with amines and GROTAN. Particulars: for growth of Pseudomonas Aeruginosa (Table 1 entry): pH 8.5, 24 hours.
The subject of experiment [2] is Mycobacterium marinum (ATCC # 19420). In words: End-point optical density and MIC, Mycobacterium marinum (660 nm, 72 h). Particulars: pH 8.5; for MIC (estimate of the concentration range in which the amine starts to inhibit growth): 72 hours; for end-point optical density: 660 nm, after 72 hours. The protocol: (§1) The impact of N-alkylalkanolamines on the control of the bacterial species Mycobacterium smegmatis (ATCC # 19420), a bacteria common in water-oil systems, was evaluated by measuring optical absorbance of samples treated with various alkyl ethanolaminesis DCHA=Dicyclohexylamine, OAE=Octylaminoethanol, ODEA=Octyldiethanolamine. Bacterial concentration was monitored indirectly via optical absorbance at 660 nm. The values reported are end-point optical densities in milliOD units after 48 hours. The media consisted of a standardized solution of clear nutrient broth (Middlebrook 7H10 with OADC supplement), amine, buffer (Tris) and water. The pH was adjusted initially to 8.5 with Tris buffer. The first column in the Table gives the amine concentration in ppm. The final two columns give data for cells that also contained 2 grams per liter of boric acid. In all cases, the values are averages of at least three replicates. The final row of the Table gives an estimate of the concentration range in which the amine in question starts to inhibit the growth of this bacterial species.
The impact of the N-alkylalkanolamines of Example 6 on the control of the bacterial species Mycobacterium marinum (ATCC # 19420), bacteria common in water-oil systems, was evaluated as described above in Example 6. Bacterial concentration in the experimental media was monitored indirectly via optical absorbance at 660 nm. The values reported are end-point optical densities in milliOD units after 72 hours. The media consisted of a standardized solution of clear nutrient broth (Middlebrook 7H10 with OADC supplement), amine, buffer (Tris) and water. The pH was adjusted initially to 8.5 with Tris buffer. The first column in the Table gives the amine concentration in ppm. In all cases, the values are averages of at least three replicates. The final row of the Table gives an estimate of the concentration range in which the amine in question starts to inhibit the growth of this bacterial species.

The subject of experiment [3] is Mycobacterium smegmatis (ATCC # 19420). In words: End-point optical density and MIC, Mycobacterium smegmatis (660 nm, 48 h). Particulars: for MIC (estimate of the concentration range in which the amine starts to inhibit growth): 48 hours; for end-point optical density: 660 nm, after 48 hours. The protocol: as §1
Experiment [4] has the same test system. In words: End-point optical density of Mycobacterium smegmatis with N-alkyl alkanolamines (590 nm, 72 h). Particulars: 590 nm, after 72 hours, pH 8.5, tetrazolium dye.
Experiment [5] relates to Pseudomonas aeruginosa (ATCC 10145). Description: Maximum growth slope of Pseudomonas aeruginosa with Proxel DB20 (BIT) plus alkanolamine. Particulars: pH 8.5, TSB, 24 hour.
Experimental: A culture of Pseudomonas aeruginosa (ATCC 10145) at pH=8.5 in TSB (trypticase soy broth) media was prepared. The biocide Proxel DB20 (20% suspension of benzoisothiazolone (BIT) in water), as sold by Avecia, was added at varying concentrations in combination with 1000 ppm or 2000 ppm of the alkanolamines N-butylaminoethanol (BAE), 2-amino-2-methyl-1-propanol (AMP), dibutylaminoethanol (DBAE) or n-octylaminoethanol (OAE). Optical density measurements were taken every 15 minutes over a 24 hour time period (total of 96 data points). The maximum growth slope was calculated by taking the 10 contiguous data points that result in the highest growth slope (units of OD per time) over a 24 hour period. Those 10 data points were subjected to a least squares linear fit to calculate the maximum growth slope.
Experiment [6] has as its system Aureobasidium pullulans (ATCC 12536). In words: End-point optical density of Aureobasidium pullulans with MIT/CMIT plus alkanolamine. Particulars: SAB media pH 8.5. Here is the method:
The impact of N-alkylalkanolamines on the control of the bacterial species Aureobasidium pullulans (ATCC 12536), a bacteria common in water-oil systems, was evaluated by measuring optical absorbance of samples treated with various concentrations of N-alkyl alkanolamines. […] SAB media at pH 8.5 (Tris buffer) was employed. Table 8 summarizes measurement of end-point optical density after 24 hours and 48 hours: […]

[7] abbreviates: amine 2000 ppm plus GROTAN 100 ppm.
Where [8] appears, read: amine 2000 ppm plus GROTAN 250 ppm.
Where [9] appears, read: amine 2000 ppm plus GROTAN 500 ppm.
[10] abbreviates: amine 2000 ppm plus GROTAN 1000 ppm.
[11] abbreviates: amine 2000 ppm plus GROTAN 2000 ppm.
Setting [12] is: amine 4000 ppm plus GROTAN 100 ppm.
Setting [13] is: amine 4000 ppm plus GROTAN 250 ppm.
Where [14] appears, read: amine 4000 ppm plus GROTAN 500 ppm.
Setting [15] is: amine 4000 ppm plus GROTAN 1000 ppm.
Where [16] appears, read: amine 4000 ppm plus GROTAN 2000 ppm.

The structures appear in SMILES notation. Some results are limits rather than exact numbers.

For `CCCCN(CCO)CCO` [BDEA, butyldiethanolamine], the “growth of Pseudomonas Aeruginosa (Table 1 entry)” value (from here on “growth of Pseudomonas Aeruginosa”) in experiment [1] (setting [7]) worked out at 0.52; in experiment [1] (setting [8]), 0.72; in experiment [1] (setting [9]), 0.79; in experiment [1] (setting [10]), 0.32; in experiment [1] (setting [11]), 0.33; in experiment [1] (amine 2000 ppm, GROTAN 0 ppm), 0.67. Further, the “growth of Pseudomonas Aeruginosa” value came to 0.67 in experiment [1] (setting [12]); 0.51 in experiment [1] (setting [13]); 0.30 in experiment [1] (setting [14]); 0.28 in experiment [1] (setting [15]); 0.33 in experiment [1] (setting [16]); 0.45 in experiment [1] (amine 4000 ppm, GROTAN 0 ppm). In addition, the “enhancement in the biocidal effect of GROTAN” value in experiment [1] (conclusion from Table 1) is recorded as “provide an enhancement in the biocidal effect of GROTAN®”.
As to `CC(C)(C)NCCO` [TBAE, tert-butylaminoethanol], the “growth of Pseudomonas Aeruginosa” value is given as 0.72 in experiment [1] (setting [7]); 0.69 in experiment [1] (setting [8]); 0.83 in experiment [1] (setting [9]); 0.30 in experiment [1] (setting [10]); 0.35 in experiment [1] (setting [11]); 0.67 in experiment [1] (amine 2000 ppm, GROTAN 0 ppm). Moreover, the “growth of Pseudomonas Aeruginosa” value in experiment [1] (setting [12]) was 0.58; in experiment [1] (setting [13]), 0.59; in experiment [1] (setting [14]) it was 0.34; in experiment [1] (setting [15]) it was 0.28; in experiment [1] (setting [16]), 0.36; in experiment [1] (amine 4000 ppm, GROTAN 0 ppm), 0.55.
In the case of `C1CCC(NC2CCCCC2)CC1` [DCHA, Dicyclohexylamine, reference compound], the “MIC (estimate of the concentration range in which the amine starts to inhibit growth)” value was above 4000 ppm in experiment [2]; 1500-2000 ppm in experiment [3] (pH 8.5, no boric acid); 1000-2000 ppm in experiment [3] (with 2 grams per liter of boric acid). The end-point optical density in experiment [2] (amine 400 ppm) is 0.6 milliOD; in experiment [2] (amine 800 ppm) it was 0.6 milliOD; in experiment [2] (amine 1200 ppm), 0.5 milliOD; in experiment [2] (amine 2000 ppm), 0.4 milliOD; in experiment [2] (amine 4000 ppm) it was 0.4 milliOD; in experiment [3] (amine 500 ppm plus 2 grams per liter of boric acid) it was 1.125 milliOD. Further, the end-point optical density in experiment [3] (amine 500 ppm, pH 8.5) came out at 1.02 milliOD; in experiment [3] (amine 1000 ppm plus 2 grams per liter of boric acid) it was 0.855 milliOD; in experiment [3] (amine 1000 ppm, pH 8.5) it was 0.802 milliOD; in experiment [3] (amine 1500 ppm, pH 8.5), 0.995 milliOD; in experiment [3] (amine 2000 ppm plus 2 grams per liter of boric acid), 0.085 milliOD; in experiment [3] (amine 2000 ppm, pH 8.5) it was 0.268 milliOD.
Regarding `CCCCN(CCO)CCCC` [DBAE, dibutylaminoethanol], the end-point optical density in experiment [4] (amine 470 ppm) was found to be 2000 milliOD; in experiment [4] (amine 940 ppm), 2000 milliOD; in experiment [4] (amine 1880 ppm), 2000 milliOD; in experiment [4] (amine 3750 ppm) it was 1900 milliOD; in experiment [4] (amine 7500 ppm) it was 1200 milliOD; in experiment [6] (amine 1000 ppm plus 50 ppm MIT/CMIT, 24 hours) it was 0.3. In addition, the end-point optical density in experiment [6] (amine 1000 ppm plus 50 ppm MIT/CMIT, 48 hours) was 0.4; in experiment [6] (amine 2000 ppm plus 50 ppm MIT/CMIT, 24 hours), 0.2; in experiment [6] (amine 2000 ppm plus 50 ppm MIT/CMIT, 48 hours) it was 0.2. In addition, the maximum growth slope in experiment [5] (amine 1000 ppm plus BIT 150 ppm) is reported as 0.221 OD per time; in experiment [5] (amine 1000 ppm plus BIT 250 ppm), 0.255 OD per time; in experiment [5] (amine 1000 ppm plus BIT 500 ppm) it was 0.143 OD per time; in experiment [5] (amine 1000 ppm, BIT 0 ppm) it was 0.228 OD per time; in experiment [5] (amine 2000 ppm plus BIT 150 ppm), 0.084 OD per time; in experiment [5] (amine 2000 ppm plus BIT 250 ppm), 0.104 OD per time. The maximum growth slope is given as 0.000 OD per time in experiment [5] (amine 2000 ppm plus BIT 500 ppm) and 0.114 OD per time in experiment [5] (amine 2000 ppm, BIT 0 ppm).
As for `CCCCCCCCN(CCO)CCO` [ODEA, Octyldiethanolamine], the “MIC (estimate of the concentration range in which the amine starts to inhibit growth)” value in experiment [2] is given as 1200-2000 ppm; in experiment [3] (pH 8.5, no boric acid) it was 500-1000 ppm. Further, the end-point optical density was determined as 0.6 milliOD in experiment [2] (amine 400 ppm); 0.4 milliOD in experiment [2] (amine 800 ppm); 0.4 milliOD in experiment [2] (amine 1200 ppm); 0.1 milliOD in experiment [2] (amine 2000 ppm); 0 milliOD in experiment [2] (amine 4000 ppm); 0.847 milliOD in experiment [3] (amine 500 ppm, pH 8.5). Besides, the end-point optical density in experiment [3] (amine 1000 ppm, pH 8.5) was determined as 0.117 milliOD; in experiment [3] (amine 1500 ppm, pH 8.5), 0.260 milliOD; in experiment [3] (amine 2000 ppm, pH 8.5), 0.225 milliOD.

The record behind these values is patent publication US20060005464A1, “Alkyl ethanolamine and biocide combination for hydrocarbon based fuels” (priority 2004, published 2006).
